# Experimental data: patent publication US12227500B2, “Substituted pyrrolo[2,3-b]pyridines for suppressing toxic endoplasmic reticulum stress” (THE TRUSTEES OF COLUMBIA UNIVERSITY IN THE CITY OF NEW YORK, priority 2018, dated 2025)
# Like-named read-outs stand apart in the source and are kept apart here.
# Key:
# MLK1/MAP3K9 = target: T1, MLK1/MAP3K9 (Homo sapiens, UniProt P80192); assay: Radiolabeled ATP kinase assay (Reaction Biology Corp.), MLK1; format: biochemical; settings: [Cmpd] 0.1 μM, 10 μM ATP
# T1 construct: purchased Reaction Biology Corp
# Description: (§1) Meanwhile, the same analogs were analyzed in a radiolabeled ATP assay (10 μM ATP; Reaction Biology Corp.) to compare the extent to which they could inhibit the activity of HGK, MLK1, or MLK3 in a cell-free environment (Table S3 and S4).
# HGK/MAP4K4 = HGK/MAP4K4 (Homo sapiens, UniProt O95819); assay: Radiolabeled ATP kinase assay (Reaction Biology Corp.), HGK; format: biochemical; design: purchased Reaction Biology Corp; settings: 10 μM ATP, read-out: % Enzyme Activity (relative to DMSO controls), HGK/MAP4K4, Data 1; for remaining activity at 0.025 µM: [Cmpd] 0.025 μM; for remaining activity at 0.1 µM: [Cmpd] 0.1 μM
# Description: as §1
# [1] = system: human ES motor neurons carrying the ALS-causing SOD1^A4V mutation; assay: cells; format: cell-based; settings: for EC50 / viability at 1 µM / Emax: Homo sapiens, Neuron, 72 h; for EC50 / Emax: CPA 33 μM; for EC50: read-out: EC50; for viability at 1 µM: CPA (33 μM) + compound (1 μM), read-out: Motor Neuron Survival, % untreated; for Emax: read-out: Emax (MN survival % untreated)
# Description: Next, survival assays were performed with all the analogs at once to generate a low-variability dataset. All compounds were evaluated at concentrations ranging from 0.1-3.0 μM (five-point dilution) in three technical replicates and two biological replicates.
# MLK3/MAP3K11 = target: T2, MLK3/MAP3K11 (Homo sapiens, UniProt Q16584); assay: Radiolabeled ATP kinase assay (Reaction Biology Corp.), MLK3; format: biochemical; settings: [Cmpd] 0.1 μM; 10 μM ATP
# T2 construct: purchased Reaction Biology Corp
# Description: as §1
# [2] = read-out: % Enzyme Activity Remaining (relative to DMSO controls), MLK1/MAP3K9, Data 1
# [3] = read-out: % Enzyme Activity Remaining (relative to DMSO controls), MLK1/MAP3K9, Data 2
# T2 sequence (Q16584 whole entry): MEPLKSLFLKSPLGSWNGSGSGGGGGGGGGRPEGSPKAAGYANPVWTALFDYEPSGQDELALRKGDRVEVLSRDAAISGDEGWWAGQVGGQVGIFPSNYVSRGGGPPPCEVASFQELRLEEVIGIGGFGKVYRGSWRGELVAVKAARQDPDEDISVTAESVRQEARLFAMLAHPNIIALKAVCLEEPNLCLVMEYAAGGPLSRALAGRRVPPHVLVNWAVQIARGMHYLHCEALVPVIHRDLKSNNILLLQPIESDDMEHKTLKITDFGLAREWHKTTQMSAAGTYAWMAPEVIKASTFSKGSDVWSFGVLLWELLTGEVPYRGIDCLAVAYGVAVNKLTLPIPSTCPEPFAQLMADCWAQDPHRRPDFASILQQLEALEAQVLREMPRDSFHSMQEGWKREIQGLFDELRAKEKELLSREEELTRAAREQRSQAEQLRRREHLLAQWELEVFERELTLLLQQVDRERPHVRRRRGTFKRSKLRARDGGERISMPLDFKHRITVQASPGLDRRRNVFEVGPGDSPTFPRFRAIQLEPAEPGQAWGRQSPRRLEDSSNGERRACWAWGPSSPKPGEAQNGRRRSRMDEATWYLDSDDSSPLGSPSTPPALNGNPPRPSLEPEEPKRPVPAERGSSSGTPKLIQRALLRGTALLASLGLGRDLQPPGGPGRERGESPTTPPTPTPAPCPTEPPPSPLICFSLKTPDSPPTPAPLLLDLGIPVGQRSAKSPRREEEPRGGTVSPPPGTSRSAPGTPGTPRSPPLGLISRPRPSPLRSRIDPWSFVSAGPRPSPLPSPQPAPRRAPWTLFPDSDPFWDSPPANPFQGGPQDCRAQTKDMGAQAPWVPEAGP
# Chain of HGK/MAP4K4 (O95819 whole entry): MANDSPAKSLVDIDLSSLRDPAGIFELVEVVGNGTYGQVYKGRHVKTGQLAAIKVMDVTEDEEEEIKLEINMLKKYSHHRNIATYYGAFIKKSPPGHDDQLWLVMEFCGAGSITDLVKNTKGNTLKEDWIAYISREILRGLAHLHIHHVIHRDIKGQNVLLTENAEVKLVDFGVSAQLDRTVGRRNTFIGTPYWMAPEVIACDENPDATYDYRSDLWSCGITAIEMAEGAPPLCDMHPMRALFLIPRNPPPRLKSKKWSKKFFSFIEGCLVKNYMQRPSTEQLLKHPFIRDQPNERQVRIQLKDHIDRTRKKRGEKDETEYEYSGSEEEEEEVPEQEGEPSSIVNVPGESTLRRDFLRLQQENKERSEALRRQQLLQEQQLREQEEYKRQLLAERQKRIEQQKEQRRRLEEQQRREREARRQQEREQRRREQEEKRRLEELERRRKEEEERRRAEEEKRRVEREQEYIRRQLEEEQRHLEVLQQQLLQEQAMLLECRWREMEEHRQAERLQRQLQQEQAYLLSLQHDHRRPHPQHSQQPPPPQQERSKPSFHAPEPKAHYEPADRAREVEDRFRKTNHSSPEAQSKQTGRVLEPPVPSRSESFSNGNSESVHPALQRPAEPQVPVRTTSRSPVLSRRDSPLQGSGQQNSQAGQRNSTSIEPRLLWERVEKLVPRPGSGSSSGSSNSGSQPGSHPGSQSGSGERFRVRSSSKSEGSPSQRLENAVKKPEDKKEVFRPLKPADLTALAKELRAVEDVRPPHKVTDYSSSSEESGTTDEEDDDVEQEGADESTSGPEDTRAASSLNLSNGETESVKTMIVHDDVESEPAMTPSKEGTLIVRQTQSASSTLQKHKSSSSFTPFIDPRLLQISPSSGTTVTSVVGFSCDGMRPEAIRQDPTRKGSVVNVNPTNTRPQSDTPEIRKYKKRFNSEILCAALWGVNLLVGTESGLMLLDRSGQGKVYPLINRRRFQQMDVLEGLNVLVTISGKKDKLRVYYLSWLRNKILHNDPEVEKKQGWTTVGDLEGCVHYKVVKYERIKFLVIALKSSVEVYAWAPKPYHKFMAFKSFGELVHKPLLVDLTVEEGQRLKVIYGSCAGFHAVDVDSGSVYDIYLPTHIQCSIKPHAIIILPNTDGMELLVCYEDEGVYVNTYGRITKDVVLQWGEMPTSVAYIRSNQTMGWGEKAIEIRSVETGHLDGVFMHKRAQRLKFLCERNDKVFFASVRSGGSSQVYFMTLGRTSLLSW
# T1 sequence (P80192 whole entry): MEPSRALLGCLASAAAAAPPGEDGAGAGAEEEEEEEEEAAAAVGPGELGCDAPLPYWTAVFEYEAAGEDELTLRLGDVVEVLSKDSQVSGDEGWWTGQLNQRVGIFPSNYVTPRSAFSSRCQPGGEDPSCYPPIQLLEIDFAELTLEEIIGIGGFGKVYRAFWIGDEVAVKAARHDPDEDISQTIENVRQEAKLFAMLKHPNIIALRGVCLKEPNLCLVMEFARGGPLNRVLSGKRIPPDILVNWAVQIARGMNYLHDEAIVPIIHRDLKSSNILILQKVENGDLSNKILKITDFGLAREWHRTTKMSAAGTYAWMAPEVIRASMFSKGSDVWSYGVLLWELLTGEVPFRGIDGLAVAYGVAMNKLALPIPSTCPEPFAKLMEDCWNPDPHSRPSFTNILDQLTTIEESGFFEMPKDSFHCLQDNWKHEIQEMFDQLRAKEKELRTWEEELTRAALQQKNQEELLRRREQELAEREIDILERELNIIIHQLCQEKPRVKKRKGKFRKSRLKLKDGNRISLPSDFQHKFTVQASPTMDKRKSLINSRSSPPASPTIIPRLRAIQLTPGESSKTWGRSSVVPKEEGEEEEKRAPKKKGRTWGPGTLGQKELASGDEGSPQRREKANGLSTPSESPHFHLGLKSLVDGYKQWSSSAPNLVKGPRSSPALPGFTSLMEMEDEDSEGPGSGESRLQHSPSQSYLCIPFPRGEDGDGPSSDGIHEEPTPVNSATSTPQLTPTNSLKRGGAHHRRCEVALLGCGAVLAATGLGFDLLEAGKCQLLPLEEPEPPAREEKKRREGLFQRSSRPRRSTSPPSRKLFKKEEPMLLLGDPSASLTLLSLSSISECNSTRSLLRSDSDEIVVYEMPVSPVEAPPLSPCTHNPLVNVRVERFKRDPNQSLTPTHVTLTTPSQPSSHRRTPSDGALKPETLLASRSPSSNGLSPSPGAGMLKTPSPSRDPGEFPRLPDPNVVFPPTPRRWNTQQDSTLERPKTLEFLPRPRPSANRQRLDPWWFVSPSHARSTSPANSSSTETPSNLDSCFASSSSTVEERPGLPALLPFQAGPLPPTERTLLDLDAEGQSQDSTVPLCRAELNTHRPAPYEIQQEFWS
remaining activity at 0.1 µM (MLK1/MAP3K9; [2]),remaining activity at 0.1 µM (MLK1/MAP3K9; [3]),remaining activity at 0.025 µM (HGK/MAP4K4),remaining activity at 0.1 µM (HGK/MAP4K4),"% Enzyme Activity Remaining (relative to DMSO controls), MLK3/MAP3K11, Data 1 (MLK3/MAP3K11)","% Enzyme Activity Remaining (relative to DMSO controls), MLK3/MAP3K11, Data 2 (MLK3/MAP3K11)",Molecule,EC50 [1],viability at 1 µM [1],Emax [1],rescue of MNs in the CPA survival assay ([1]; FIG. 9)
77.7%,77.5%,63.6%,20.6%,46.91%,44.55%,"CN1CCN(Cc2ccc(-c3cnc4[nH]cc(-c5cccc(C(=O)O)c5)c4c3)cc2)CC1 [Compound 7j, 3-(5-(4-((4-Methylpiperazin-1-yl)methyl)phenyl)-1H-pyrrolo[2,3-b]pyridin-3-yl)benzoic acid]",–,–,–,–
55.9%,58.5%,–,–,45.87%,42.66%,"CN1CCN(Cc2ccc(-c3cnc4[nH]cc(-c5cc6ccccc6s5)c4c3)cc2)CC1 [Compound 7g, 3-(Benzo[b]thiophen-2-yl)-5-(4-((4-methylpiperazin-1-yl)methyl)phenyl)-1H-pyrrolo[2,3-b]pyridine]",–,–,–,–
–,–,–,–,–,–,"Fc1cccc(-c2c[nH]c3ncc(-c4ccc(CN5CCC(N6CCCCC6)CC5)cc4)cc23)c1 [Compound 12g, 5-(4-([1,4′-Bipiperidin]-1′-ylmethyl)phenyl)-3-(3-fluorophenyl)-1H-pyrrolo[2,3-b]pyridine]",50 nM,–,89.3%,–
–,–,–,–,–,–,"CC(C)(C)N1CCN(Cc2ccc(-c3cnc4[nH]cc(-c5cccc(F)c5)c4c3)cc2)CC1 [Compound 12j, 5-(4-((4-(tert-Butyl)piperazin-1-yl)methyl)phenyl)-3-(3-fluorophenyl)-1H-pyrrolo[2,3-b]pyridine]",50 nM,–,98.5%,–
–,–,–,–,–,–,NG-25 [reference compound],–,–,–,unable to rescue MNs
54.5%,53.6%,57.3%,20%,51.92%,49.61%,"COc1ccc(-c2c[nH]c3ncc(-c4ccc(CN5CCN(C)CC5)cc4)cc23)cc1C [Compound 7aq, 3-(4-Methoxy-3-methylphenyl)-5-(4-((4-methylpiperazin-1-yl)methyl)phenyl)-1H-pyrrolo[2,3-b]pyridine]",–,–,–,–
56.2%,46.5%,72.8%,51.5%,52.18%,46.74%,"c1cc2cc(-c3c[nH]c4ncc(-c5ccc(CN6CC7CCC(C6)O7)cc5)cc34)ccc2[nH]1 [Compound 12a, 3-(4-(3-(1H-Indol-5-yl)-1H-pyrrolo[2,3-b]pyridin-5-yl)benzyl)-8-oxa-3-azabicyclo[3.2.1]octane]",–,–,–,–
74.2%,75.1%,86.1%,58.8%,63.66%,64.82%,"CN1CCN(Cc2ccc(-c3cnc4[nH]cc(-c5cc6ccccc6[nH]5)c4c3)cc2)CC1 [Compound 7a, 3-(1H-Indol-2-yl)-5-(4-((4-methylpiperazin-1-yl)methyl)phenyl)-1H-pyrrolo[2,3-b]pyridine]",–,–,–,–
95%,95.5%,102%,85.5%,93.68%,88.60%,"Cc1ccc(S(=O)(=O)n2cc(-c3ccc4[nH]ccc4c3)c3cc(-c4ccc(C=O)cc4)cnc32)cc1 [Compound 11, 4-(3-(1H-Indol-5-yl)-1-tosyl-1H-pyrrolo[2,3-b]pyridin-5-yl)benzaldehyde]",–,–,–,–
54.2%,52.8%,35.6%,6.76%,70.05%,68.91%,"COc1cc(-c2c[nH]c3ncc(-c4ccc(CN5CCN(C)CC5)cc4)cc23)cc(OC)c1OC [Compound 7ap, 5-(4-((4-Methylpiperazin-1-yl)methyl)phenyl)-3-(3,4,5-trimethoxyphenyl)-1H-pyrrolo[2,3-b]pyridine]",–,–,–,–
56.2%,58.6%,4.88%,1.23%,38.87%,39.87%,"CN1CCN(Cc2ccc(-c3cnc4[nH]cc(-c5cccc(O)c5)c4c3)cc2)CC1 [Compound 7r, 3-(5-(4-((4-Methylpiperazin-1-yl)methyl)phenyl)-1H-pyrrolo[2,3-b]pyridin-3-yl)phenol]",–,–,–,–
96.4%,92.6%,103%,86.6%,95.75%,93.75%,"CN1CCN(Cc2ccc(-c3cnc4[nH]cc(-c5cc(C(F)(F)F)cc(C(F)(F)F)c5)c4c3)cc2)CC1 [Compound 7aj, 3-(3,5-Bis(trifluoromethyl)phenyl)-5-(4-((4-methylpiperazin-1-yl)methyl)phenyl)-1H-pyrrolo[2,3-b]pyridine]",–,–,–,–

Molecule,remaining activity at 0.1 µM (MLK1/MAP3K9; [2]),remaining activity at 0.1 µM (MLK1/MAP3K9; [3]),remaining activity at 0.025 µM (HGK/MAP4K4),remaining activity at 0.1 µM (HGK/MAP4K4),"% Enzyme Activity Remaining (relative to DMSO controls), MLK3/MAP3K11, Data 1 (MLK3/MAP3K11)","% Enzyme Activity Remaining (relative to DMSO controls), MLK3/MAP3K11, Data 2 (MLK3/MAP3K11)",EC50 [1],viability at 1 µM [1],Emax [1],rescue of MNs in the CPA survival assay ([1]; FIG. 9)
"CN1CCN(Cc2ccc(-c3cnc4[nH]cc(-c5cnc(N)nc5)c4c3)cc2)CC1 [Compound 7k, 5-(5-(4-((4-Methylpiperazin-1-yl)methyl)phenyl)-1H-pyrrolo[2,3-b]pyridin-3-yl)pyrimidin-2-amine]",69%,70.8%,48.3%,16.5%,71.64%,75.32%,316 nM,71%,71%,–
"CN1CCN(Cc2ccc(-c3cnc4[nH]cc(-c5ccccc5)c4c3)cc2)CC1 [Compound 7ac, 5-(4-((4-Methylpiperazin-1-yl)methyl)phenyl)-3-phenyl-1H-pyrrolo[2,3-b]pyridine]",60.8%,57.7%,31.9%,6.69%,42.00%,43.30%,774 nM,75.9%,110%,–
"CN1CCN(Cc2ccc(-c3cnc4[nH]cc(-c5cccc([N+](=O)[O-])c5)c4c3)cc2)CC1 [Compound 7p, 5-(4-((4-Methylpiperazin-1-yl)methyl)phenyl)-3-(3-nitrophenyl)-1H-pyrrolo[2,3-b]pyridine]",62.7%,62.9%,3.92%,1.56%,40.84%,42.08%,293 nM,116%,131%,–
"CN1C2CCC1CN(Cc1ccc(-c3cnc4[nH]cc(-c5cccc6[nH]ncc56)c4c3)cc1)C2 [Compound 12d, 4-(5-(4-((8-Methyl-3,8-diazabicyclo[3.2.1]octan-3-yl)methyl)phenyl)-1H-pyrrolo[2,3-b]pyridin-3-yl)-1H-indazole]",–,–,3.17%,-0.29%,–,–,301 nM,109%,143%,–
"CN1CC2CCC(C1)N2Cc1ccc(-c2cnc3[nH]cc(-c4ccc5[nH]ccc5c4)c3c2)cc1 [Compound 12c, 3-(1H-Indol-5-yl)-5-(4-((3-methyl-3,8-diazabicyclo[3.2.1]octan-8-yl)methyl)phenyl)-1H-pyrrolo[2,3-b]pyridine]",–,–,92.7%,84.2%,–,–,694 nM,43.7%,43.7%,–
"CN1C2CCC1CN(Cc1ccc(-c3cnc4[nH]cc(-c5ccc6[nH]ccc6c5)c4c3)cc1)C2 [Compound 12b, 3-(1H-Indol-5-yl)-5-(4-((8-methyl-3,8-diazabicyclo[3.2.1]octan-3-yl)methyl)phenyl)-1H-pyrrolo[2,3-b]pyridine]",–,–,69%,34.5%,–,–,1960 nM,25.2%,72.6%,–
"CC(C)Oc1ccc(-c2c[nH]c3ncc(-c4ccc(CN5CCN(C)CC5)cc4)cc23)cc1 [Compound 7q, 3-(4-Isopropoxyphenyl)-5-(4-((4-methylpiperazin-1-yl)methyl)phenyl)-1H-pyrrolo[2,3-b]pyridine]",94.1%,95.4%,–,–,91.91%,89.69%,740 nM,20.6%,21.5%,–
